Assay results published in the supplement of paper PMC10307832.

Experiments:
Assay in all cases: relative viability (nuclei count vs DMSO), 5 days (fraction); higher = more cells survive
[1] = test system: PC-3 [JPC-3]
Method in brief: (§1)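 Lung cancer cell lines in 1536-well plates were dosed by pin tool the day after seeding, either with one drug alone or with a fixed anchor-drug dose plus five library-drug doses (not always all listed) in √10 steps. After 5 days, cells were fixed and their nuclei stained in one step (final 0.05% Triton X-100, 1% formaldehyde, 1 ug/ml Hoechst), then counted on 4× images. Relative viability is the nuclei count in treated wells divided by that in vehicle wells. Values are medians of duplicate plates.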

[2] = test system: A-427
Method in brief: as §1

[3] = test system: LK-2
Method in brief: as §1

[4] = test system: NCI-H596
Method in brief: as §1

[5] = test system: NCI-H1993
Method in brief: as §1

[6] = test system: HOP-62
Method in brief: as §1

[7] = test system: EMC-BAC-2
Method in brief: as §1

[8] = test system: SW 1573
Method in brief: as §1

[9] = test system: NCI-H3122
Method in brief: as §1

[10] = test system: NCI-H1944
Method in brief: as §1

[11] = test system: SK-MES-1
Method in brief: as §1

[12] = test system: NCI-H727
Method in brief: as §1

[13] = test system: ABC-1
Method in brief: as §1

[14] = test system: NCI-H2228
Method in brief: as §1

[15] = test system: NCI-H2009
Method in brief: as §1

[16] = test system: HARA
Method in brief: as §1

[17] = test system: NCI-H1792
Method in brief: as §1

[18] = test system: NCI-H322M
Method in brief: as §1

[19] = test system: LXF-289
Method in brief: as §1

O=c1cc(N2CCOCC2)oc2c(-c3cccc4c3sc3ccccc34)cccc12 + C[C@]1(O)C[C@@H](c2nc(-c3ccc4ccc(-c5ccccc5)nc4c3)c3c(N)nccn32)C1 [Linsitinib] (partner 1 µM)
relative viability ([1]; first compound 0.01 µM): 0.967 | relative viability ([1]; first compound 0.03162 µM): 0.865 | relative viability ([1]; first compound 0.1 µM): 0.943 | relative viability ([1]; first compound 0.3162 µM): 0.916 | relative viability ([1]; first compound 1 µM): 0.913 | relative viability ([2]; first compound 0.01 µM): 1.13 | relative viability ([2]; first compound 0.03162 µM): 1.12 | relative viability ([2]; first compound 0.1 µM): 1.23 | relative viability ([2]; first compound 0.3162 µM): 1.12 | relative viability ([2]; first compound 1 µM): 1.11 | relative viability ([3]; first compound 0.01 µM): 0.585 | relative viability ([3]; first compound 0.03162 µM): 0.754 | relative viability ([3]; first compound 0.1 µM): 0.83 | relative viability ([3]; first compound 0.3162 µM): 0.554 | relative viability ([3]; first compound 1 µM): 0.69 | relative viability ([4]; first compound 0.01 µM): 1.14 | relative viability ([4]; first compound 0.03162 µM): 1.02 | relative viability ([4]; first compound 0.1 µM): 1.19 | relative viability ([4]; first compound 0.3162 µM): 0.968 | relative viability ([4]; first compound 1 µM): 0.921 | relative viability ([5]; first compound 0.01 µM): 0.73 | relative viability ([5]; first compound 0.03162 µM): 0.785 | relative viability ([5]; first compound 0.1 µM): 0.687 | relative viability ([5]; first compound 0.3162 µM): 0.79 | relative viability ([5]; first compound 1 µM): 0.531 | relative viability ([6]; first compound 0.01 µM): 0.991 | relative viability ([6]; first compound 0.03162 µM): 1.12 | relative viability ([6]; first compound 0.1 µM): 0.909 | relative viability ([6]; first compound 0.3162 µM): 0.933 | relative viability ([6]; first compound 1 µM): 0.989 | relative viability ([7]; first compound 0.01 µM): 0.822 | relative viability ([7]; first compound 0.03162 µM): 0.867 | relative viability ([7]; first compound 0.1 µM): 0.813 | relative viability ([7]; first compound 0.3162 µM): 0.773 | relative viability ([7]; first compound 1 µM): 0.806 | relative viability ([8]; first compound 0.01 µM): 0.955 | relative viability ([8]; first compound 0.03162 µM): 0.832 | relative viability ([8]; first compound 0.1 µM): 0.746 | relative viability ([8]; first compound 0.3162 µM): 0.813 | relative viability ([8]; first compound 1 µM): 0.653 | relative viability ([9]; first compound 0.01 µM): 1.01 | relative viability ([9]; first compound 0.03162 µM): 0.977 | relative viability ([9]; first compound 0.1 µM): 1.12 | relative viability ([9]; first compound 0.3162 µM): 1.03 | relative viability ([9]; first compound 1 µM): 0.944 | relative viability ([10]; first compound 0.01 µM): 1.16 | relative viability ([10]; first compound 0.03162 µM): 1.19 | relative viability ([10]; first compound 0.1 µM): 1.19 | relative viability ([10]; first compound 0.3162 µM): 1.33 | relative viability ([10]; first compound 1 µM): 1.16 | relative viability ([11]; first compound 0.01 µM): 1.17 | relative viability ([11]; first compound 0.03162 µM): 1.02 | relative viability ([11]; first compound 0.1 µM): 1.05 | relative viability ([11]; first compound 0.3162 µM): 1.09 | relative viability ([11]; first compound 1 µM): 1.01 | relative viability ([12]; first compound 0.01 µM): 0.29 | relative viability ([12]; first compound 0.03162 µM): 0.238 | relative viability ([12]; first compound 0.1 µM): 0.243 | relative viability ([12]; first compound 0.3162 µM): 0.227 | relative viability ([12]; first compound 1 µM): 0.283 | relative viability ([13]; first compound 0.01 µM): 0.89 | relative viability ([13]; first compound 0.03162 µM): 0.717 | relative viability ([13]; first compound 0.1 µM): 0.745 | relative viability ([13]; first compound 0.3162 µM): 0.618 | relative viability ([13]; first compound 1 µM): 0.586 | relative viability ([14]; first compound 0.03162 µM): 0.571 | relative viability ([14]; first compound 0.1 µM): 0.539 | relative viability ([14]; first compound 0.3162 µM): 0.904 | relative viability ([14]; first compound 1 µM): 0.74 | relative viability ([15]; first compound 0.01 µM): 1.16 | relative viability ([15]; first compound 0.03162 µM): 1.17 | relative viability ([15]; first compound 0.1 µM): 1.19 | relative viability ([15]; first compound 0.3162 µM): 1.17 | relative viability ([15]; first compound 1 µM): 1.05 | relative viability ([16]; first compound 0.01 µM): 0.996 | relative viability ([16]; first compound 0.03162 µM): 0.933 | relative viability ([16]; first compound 0.1 µM): 1.03 | relative viability ([16]; first compound 0.3162 µM): 1.17 | relative viability ([16]; first compound 1 µM): 0.926 | relative viability ([17]; first compound 0.01 µM): 0.514 | relative viability ([17]; first compound 0.03162 µM): 0.513 | relative viability ([17]; first compound 0.1 µM): 0.564 | relative viability ([17]; first compound 0.3162 µM): 0.502 | relative viability ([17]; first compound 1 µM): 0.574 | relative viability ([18]; first compound 0.01 µM): 0.913 | relative viability ([18]; first compound 0.03162 µM): 0.915 | relative viability ([18]; first compound 0.3162 µM): 0.993 | relative viability ([18]; first compound 1 µM): 0.83 | relative viability ([19]; first compound 0.01 µM): 0.983 | relative viability ([19]; first compound 0.03162 µM): 0.927 | relative viability ([19]; first compound 0.1 µM): 0.978 | relative viability ([19]; first compound 0.3162 µM): 0.978 | relative viability ([19]; first compound 1 µM): 0.897
